Data reported in patent US20230130403A1, “METHODS OF TREATMENT WITH S1P RECEPTOR MODULATORS” (PRIOTHERA SAS, priority 2021, published 2023).

Key:
[1] = test system: peripheral lymphocyte counts; assay: Recovery of absolute lymphocyte counts after S1P modulator dosing in healthy volunteers; assay type: in vivo, human; conditions: single 1 mg FTY720, BAF312 multiple doses for 28 days, single 3 mg KRP203
Description: Mocravimod is particularly preferred. […] A measurable parameter that determines maintenance of the mode of action, i.e., sequestering of lymphocytes in secondary lymphoid organs and bone marrow, is reduction of peripheral lymphocyte counts. Recovery of absolute lymphocyte counts to 80% of normal counts after a single 1 mg dose of FTY720, multiple dose applications of BAF312 for 28 days, or a single 3 mg dose of KRP203 was reached after 8, 7 and more than 10 days, respectively.

[2] = test system: acute GVHD after allogeneic HSCT; conditions: preclinical; cited from earlier work
S1PR1 versus S1PR3-5 = conditions: cited from earlier work
[3] = Pharmacokinetics of [14C]KRP203 radioactivity in rats; assay type: in vivo, rat
Text: Following intravenous administration of [14C]KRP203, radioactivity was readily distributed to rat and dog tissues with similar volume of distribution (Vss=8.0 L/kg in rat).

[4] = Tissue distribution of [14C]KRP203 radioactivity in Wistar rats; assay type: in vivo, rat
Text: Highly exposed tissues were liver and to a smaller extent kidney, small intestine, adrenal gland, lungs, spleen and mesenteric lymph nodes.

[5] = Pharmacokinetics of [14C]KRP203 radioactivity in dogs; assay type: in vivo, dog; conditions: oral administration
Plasma protein binding = assay type: in vitro ADME; conditions: human plasma
S1P1 [6] = target: T1, S1P1 (Homo sapiens, UniProt P21453); assay: S1P receptor agonism on S1P1; assay type: biochemical
T1 sequence (P21453 whole entry): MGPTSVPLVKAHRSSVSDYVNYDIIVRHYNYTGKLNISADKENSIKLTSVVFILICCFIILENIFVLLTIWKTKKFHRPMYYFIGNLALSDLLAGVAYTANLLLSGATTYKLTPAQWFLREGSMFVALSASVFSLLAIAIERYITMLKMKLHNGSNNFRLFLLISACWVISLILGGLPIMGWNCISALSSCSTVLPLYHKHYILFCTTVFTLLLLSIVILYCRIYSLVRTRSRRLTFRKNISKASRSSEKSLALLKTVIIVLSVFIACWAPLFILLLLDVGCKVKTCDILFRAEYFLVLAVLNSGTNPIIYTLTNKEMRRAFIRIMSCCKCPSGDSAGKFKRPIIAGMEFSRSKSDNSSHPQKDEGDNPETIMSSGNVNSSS
Text: (§1) KRP203 (mocravimod) is an immunomodulator that selectively targets sphingosine 1-phosphate (S1P) receptors via its phosphorylated active metabolite. […] The therapeutic effects are believed to be due to the prevention of effector lymphocyte recirculation from lymphatic tissue to susceptible target organs such as the gut, skin or CNS.

[7] = test system: human cytochrome P450 isoenzymes; assay: Inhibition of cytochrome P450 isoenzymes in vitro; assay type: in vitro ADME
Description: (§2) The in vivo ratio of phosphorylated KRP203 to KRP203 in plasma was up to 45 in rat. As the metabolic activities on KRP203 in human blood and hepatocytes were lower than those of other species, the metabolic clearance of KRP203 in man is expected be lower than that in rat and dog. […] KRP230 formed low amounts of covalent drug-protein adducts in human hepatocytes in vitro. Due to the low levels detected ([…] at 3 hours) in-vitro adduct formation is unlikely to be associated with clinical relevant findings at low dose levels (e.g. below 10 mg).
The weak inhibitory effect of ciclosporin on hepatic CYP3A4 is unlikely to relevantly impact the PK of KRP203.

S1P1 [8] = target: T1, S1P1; assay: S1P1 internalization; assay type: cell-based
Text: KRP203 reduces lymphocyte counts in peripheral blood by more than 80%.

hERG channels = hERG channels (Homo sapiens, UniProt Q12809); assay: hERG channel inhibition in vitro; assay type: biochemical; conditions: up to the highest concentration tested, 3 μM
hERG channels, sequence (Q12809 whole entry): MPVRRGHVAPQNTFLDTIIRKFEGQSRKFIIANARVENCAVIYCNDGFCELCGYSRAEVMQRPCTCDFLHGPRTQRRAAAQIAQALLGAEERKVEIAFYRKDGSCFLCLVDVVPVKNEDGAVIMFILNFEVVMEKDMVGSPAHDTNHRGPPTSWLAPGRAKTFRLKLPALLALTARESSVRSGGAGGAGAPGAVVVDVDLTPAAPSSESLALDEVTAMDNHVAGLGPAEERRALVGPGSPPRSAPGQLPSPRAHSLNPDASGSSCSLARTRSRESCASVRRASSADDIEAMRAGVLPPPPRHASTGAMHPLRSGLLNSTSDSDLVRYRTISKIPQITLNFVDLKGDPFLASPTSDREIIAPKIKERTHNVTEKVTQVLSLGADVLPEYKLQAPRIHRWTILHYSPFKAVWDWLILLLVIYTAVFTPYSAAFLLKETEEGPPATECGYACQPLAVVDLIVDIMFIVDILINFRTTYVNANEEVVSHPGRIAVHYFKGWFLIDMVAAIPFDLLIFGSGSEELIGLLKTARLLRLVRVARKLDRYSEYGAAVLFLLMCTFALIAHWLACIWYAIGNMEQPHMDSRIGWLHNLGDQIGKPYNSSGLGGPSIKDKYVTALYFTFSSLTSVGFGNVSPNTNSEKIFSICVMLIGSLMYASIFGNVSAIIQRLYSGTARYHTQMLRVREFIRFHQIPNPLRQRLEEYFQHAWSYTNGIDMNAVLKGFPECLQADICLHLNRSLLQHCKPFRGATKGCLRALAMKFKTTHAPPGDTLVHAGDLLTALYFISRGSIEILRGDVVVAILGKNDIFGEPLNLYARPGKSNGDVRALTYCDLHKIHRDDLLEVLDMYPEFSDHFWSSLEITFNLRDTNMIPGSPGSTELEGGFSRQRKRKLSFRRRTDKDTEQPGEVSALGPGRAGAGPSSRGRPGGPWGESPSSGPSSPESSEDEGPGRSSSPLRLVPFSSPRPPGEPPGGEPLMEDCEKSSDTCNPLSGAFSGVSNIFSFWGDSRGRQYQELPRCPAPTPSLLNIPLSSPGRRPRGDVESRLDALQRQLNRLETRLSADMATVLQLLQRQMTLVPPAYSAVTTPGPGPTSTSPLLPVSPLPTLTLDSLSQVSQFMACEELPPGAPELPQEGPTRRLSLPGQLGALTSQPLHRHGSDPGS
Text: (§3) Based on the available in vitro and in vivo data, except for the potential to cause a negative chronotropic effect and some mild increase in blood pressure, there is no indication that KRP203 would cause arrhythmia or QT prolongation in man.

[9] = In vitro metabolite profile in human hepatocytes; assay type: in vitro ADME
[10] = test system: guinea pig papillary muscle preparation; assay: APD in guinea pig papillary muscle preparation; conditions: concentrations of 3 μM
Text: as §3

[11] = Plasma toxicokinetics in dog
S1P4 = S1P4 (Homo sapiens, UniProt O95977); assay: S1P receptor agonism on S1P4; assay type: biochemical
S1P4, sequence (O95977 whole entry): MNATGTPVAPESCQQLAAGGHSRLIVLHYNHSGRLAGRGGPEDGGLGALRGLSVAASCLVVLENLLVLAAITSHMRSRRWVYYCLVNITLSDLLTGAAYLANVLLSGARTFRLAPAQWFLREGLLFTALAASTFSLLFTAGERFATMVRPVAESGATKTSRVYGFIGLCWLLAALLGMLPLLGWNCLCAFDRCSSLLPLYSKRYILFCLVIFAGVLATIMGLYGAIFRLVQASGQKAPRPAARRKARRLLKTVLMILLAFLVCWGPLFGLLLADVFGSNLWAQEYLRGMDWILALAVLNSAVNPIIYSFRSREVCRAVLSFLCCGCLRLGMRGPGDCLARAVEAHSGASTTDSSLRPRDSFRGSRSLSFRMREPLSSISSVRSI
Text: as §1

[12] = test system: GPCRs, ion channels, transporters, nuclear receptors and enzymes; assay: Off-target binding assays; conditions: compared to estimated free plasma concentration at 3 mg/day
Text: Thus it is unlikely that secondary pharmacology effects should arise due to non-specific receptor activation at therapeutic doses.

hS1P3 = hS1P3 (Homo sapiens, UniProt Q99500); assay: S1P receptor agonism on S1P3; assay type: biochemical
hS1P3, sequence (Q99500 whole entry): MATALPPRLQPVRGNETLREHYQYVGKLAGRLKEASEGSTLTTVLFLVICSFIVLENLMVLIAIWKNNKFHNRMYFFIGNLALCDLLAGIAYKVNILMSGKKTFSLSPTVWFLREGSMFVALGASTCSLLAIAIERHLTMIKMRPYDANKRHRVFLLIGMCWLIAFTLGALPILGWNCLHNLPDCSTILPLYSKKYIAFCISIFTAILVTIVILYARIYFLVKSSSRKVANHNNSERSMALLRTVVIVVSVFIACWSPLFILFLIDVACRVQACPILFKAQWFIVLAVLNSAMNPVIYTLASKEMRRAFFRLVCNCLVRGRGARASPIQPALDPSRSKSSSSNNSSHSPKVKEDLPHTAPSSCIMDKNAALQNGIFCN
Text: as §1

S1P5 = S1P5 (Homo sapiens, UniProt Q9H228); assay: S1P receptor agonism on S1P5; assay type: biochemical
S1P5, sequence (Q9H228 whole entry): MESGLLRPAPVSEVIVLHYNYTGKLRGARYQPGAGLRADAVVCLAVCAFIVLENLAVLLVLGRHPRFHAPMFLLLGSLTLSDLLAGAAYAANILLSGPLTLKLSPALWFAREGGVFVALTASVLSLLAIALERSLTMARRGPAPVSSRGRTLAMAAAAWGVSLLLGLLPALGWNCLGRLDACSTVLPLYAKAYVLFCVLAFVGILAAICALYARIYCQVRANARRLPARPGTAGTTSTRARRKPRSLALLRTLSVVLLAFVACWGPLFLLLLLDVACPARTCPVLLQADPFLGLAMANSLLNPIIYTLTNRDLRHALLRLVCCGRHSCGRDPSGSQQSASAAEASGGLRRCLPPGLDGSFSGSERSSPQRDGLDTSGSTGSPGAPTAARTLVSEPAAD
Text: as §1

chromosome aberration = assay: In vitro genotoxicity: chromosome aberration; assay type: cell-based
[13] = target: CYP3A4 via the human PXR receptor (Homo sapiens, UniProt O75469); assay: CYP3A4 induction via PXR; assay type: in vitro ADME
CYP3A4 via the human PXR receptor, sequence (O75469 whole entry): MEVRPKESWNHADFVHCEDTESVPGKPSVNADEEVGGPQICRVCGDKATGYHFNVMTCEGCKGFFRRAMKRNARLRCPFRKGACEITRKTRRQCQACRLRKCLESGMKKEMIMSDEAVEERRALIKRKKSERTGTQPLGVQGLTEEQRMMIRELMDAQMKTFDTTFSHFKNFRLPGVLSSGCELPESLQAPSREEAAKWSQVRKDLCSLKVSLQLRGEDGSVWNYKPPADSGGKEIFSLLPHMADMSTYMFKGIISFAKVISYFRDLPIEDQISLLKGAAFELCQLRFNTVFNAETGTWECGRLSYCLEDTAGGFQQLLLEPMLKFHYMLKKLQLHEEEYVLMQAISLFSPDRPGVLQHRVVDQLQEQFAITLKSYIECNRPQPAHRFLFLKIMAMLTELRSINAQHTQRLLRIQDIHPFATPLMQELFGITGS

[14] = Plasma toxicokinetics in rat
bacterial mutation = assay: In vitro genotoxicity: bacterial mutation; assay type: cell-based
[15] = In vivo plasma ratio of phosphorylated KRP203 to KRP203 in rat
Description: as §2

CCc1cc(/C(C)=N/OCc2ccc(C3CCCCC3)c(C(F)(F)F)c2)ccc1CN1CC(C(=O)O)C1 [BAF312]
Recovery of absolute lymphocyte counts to 80% of normal counts [1]: 7 days

CCCCCCCCc1ccc(CCC(N)(CO)CO)cc1 [FTY720]
effect on acute GVHD [2]: ameliorate acute GVHD
S1P receptor selectivity (S1PR1 versus S1PR3-5): poor selectivity for S1PR1 versus S1PR3-5
Recovery of absolute lymphocyte counts to 80% of normal counts [1]: 8 days

NC(CO)(CO)CCc1ccc(Sc2cccc(OCc3ccccc3)c2)cc1Cl [[14C]KRP203]
volume of distribution Vss ([3]; intravenous administration, rat): 8.0 L/kg
radioactivity Tmax ([3]; oral administration, male rats): 7 h
total radioactivity in brain relative to plasma ([4]; 14-day multiple oral dose 0.5 mg/kg/day): accumulated more in brain relative to plasma and eliminated much slower
radioactivity in CNS tissues (cerebrum, cerebellum and medulla oblongata) versus plasma ([4]; until 24 h post-dose after single administration): lower than in plasma
radioactivity Tmax [5]: 9.3 h
fraction unbound (Plasma protein binding): < 0.01

KRP203-phosphate
agonist activity (S1P1 [6]): potent agonist
effect on cytochromes P450 enzymes and transporters [7]: lack of effect
internalization of the S1P1 (S1P1 [8]): long-lasting and complete internalization
effects on hERG channels (hERG channels): did not show significant effects
metabolite abundance in human hepatocytes [9]: among the more prominent metabolites
APD prolongation [10]: No APD prolongation
KRP203-phosphate/KRP203 ratio (based on AUC0-24 h) [11]: 1.4-6.6
accumulation after repeated dosing (4 and 13 weeks) [11]: no evidence of accumulation
proportionality between exposure and dose ([11]; single and multiple doses (4 and 13 weeks)): trend for an under proportionality at all dose levels
agonist activity (S1P4): potent agonist
safety margins in off-target binding assays [12]: large safety margins
agonist activity (hS1P3): potent but partial agonist
agonist activity (S1P5): potent but partial agonist
genotoxic potential (chromosome aberration): no evidence for a genotoxic potential
no significant induction of CYP3A4 via the human PXR receptor up to concentration [13]: ≤ 50 µM
KRP203-phosphate/KRP203 ratio (based on AUC0-24 h) [14]: 10.9-19.1
proportionality between exposure and dose ([14]; single and multiple administrations): apparent proportionality between exposure and dose
genotoxic potential (bacterial mutation): no evidence for a genotoxic potential
in vivo ratio of phosphorylated KRP203 to KRP203 in plasma [15]: up to 45
